Measurements published in patent publication US20040132707A1, “Catecholate beta-lactam conjugates, method for producing the same and the use thereof” (Gruenenthal GmbH, priority 2001, published 2004).
Converted amounts (≈) assume the structure as drawn.

Experiments:
Assay in all cases: Microdilution MIC assay (NCCLS M7-A)
Format in all cases: cell-based
[1] = test system: Escherichia coli ATCC 25922; conditions: strain ATCC 25922; for MIC: Escherichia coli, ATCC25922, read-out: MIC E. coli ATCC 25922
Method: (§1) The antibacterial activity was tested by a microdilution assay according to National Committee for Clinical Laboratory Standards, 1998, Methods for dilution antimicrobial susceptibility tests for bacteria that grow aerobically, Approved standard M7-A, NCCLS, Villanova, Pa.
(§2) The minimal inhibition concentrations (MICs) were determined for the following bacterial strains: The Gram-negative strains Pseudomonas aeruginosa SG 137, ATCC 27853, Escherichia coli ATCC 25922, Klebsiella pneumoniae ATCC 10031, Stenotrophomonas maltophilia GN 12873, Serratia marcescens SG 621 as well as for the Gram-positive strain Staphylococcus aureus SG 511.

[2] = test system: Klebsiella pneumoniae ATCC 10031; conditions: strain ATCC10031; for MIC: Klebsiella pneumoniae
Method: as §1, §2

[3] = test system: Pseudomonas aeruginosa ATCC 27853; conditions: strain ATCC 27853; for MIC: Pseudomonas aeruginosa, ATCC27853
Method: as §1, §2

[4] = test system: Pseudomonas aeruginosa SG 137; conditions: strain SG137; for MIC: Pseudomonas aeruginosa
Method: as §1, §2

[5] = test system: Serratia marcescens SG 621; conditions: strain SG621; for MIC: Serratia marcescens, read-out: MIC Serratia marc. SG621
Method: as §1, §2

[6] = test system: Staphylococcus aureus SG 511; conditions: strain SG511; for MIC: Staphylococcus aureus, read-out: MIC Staph. aureus SG511
Method: as §1, §2

[7] = test system: Stenotrophomonas maltophilia GN 12873; conditions: strain GN12873; for MIC: Stenotrophomonas maltophilia, read-out: MIC Stenotroph. maltoph. GN12873
Method: as §1, §2

SMILES	MIC E. coli ATCC 25922 [1]	MIC Klebsiella pneumoniae ATCC10031 [2]	MIC Pseudomonas aeruginosa ATCC 27853 [3]	MIC Pseudomonas aeruginosa SG137 [4]	MIC Serratia marc. SG621 [5]	MIC Staph. aureus SG511 [6]	MIC Stenotroph. maltoph. GN12873 [7]	MIC [1]	MIC [2]	MIC [3]	MIC [4]	MIC [5]	MIC [6]	MIC [7]
CC(=O)Oc1cccc(C(=O)NCCN(CCNC(=O)c2cccc(OC(C)=O)c2OC(C)=O)CCN(Cc2ccc(C(=O)NC(C(=O)NC3C(=O)N4C3SC(C)(C)C4C(=O)O)c3ccccc3)cc2)C(=O)c2cccc(OC(C)=O)c2OC(C)=O)c1OC(C)=O (stereo not drawn) [Example 15]	0.78 µg/mL (≈ 0.613 µM)	0.1 µg/mL (≈ 0.0786 µM)	0.2 µg/mL (≈ 0.157 µM)	<0.05 µg/mL	0.4 µg/mL (≈ 0.314 µM)	0.78 µg/mL (≈ 0.613 µM)	<0.05 µg/mL	–	–	–	–	–	–	–
COC(=O)Oc1cccc(C(=O)N(C)CCCN(Cc2ccc(C(=O)NC(C(=O)NC3C(=O)N4C3SC(C)(C)C4C(=O)O)c3ccccc3)cc2)C(=O)c2cccc(OC(=O)OC)c2OC(=O)OC)c1OC(=O)OC (stereo not drawn) [Example 16, N-{4-[2,6-bis-(2,3-di-methoxycarbonyloxybenzoyl)-2,6-diaza-heptyl]-benzoyl}-ampicillin]	0.4 µg/mL (≈ 0.378 µM)	0.1 µg/mL (≈ 0.0945 µM)	0.78 µg/mL (≈ 0.737 µM)	<0.05 µg/mL	1.56 µg/mL (≈ 1.47 µM)	1.56 µg/mL (≈ 1.47 µM)	<0.05 µg/mL	–	–	–	–	–	–	–
CC(=O)Oc1cccc(C(=O)NCCCCN(Cc2ccc(OCC(=O)NC(C(=O)NC3C(=O)N4C3SC(C)(C)C4C(=O)O)c3ccccc3)cc2)C(=O)c2cccc(OC(C)=O)c2OC(C)=O)c1OC(C)=O (stereo not drawn) [Example 17, N-{4-[2,7-Bis-(2,3-diacetoxybenzoyl)-2,7-diaza-heptyl]-phenoxyacetyl}-ampicillin]	0.78 µg/mL (≈ 0.762 µM)	<0.05 µg/mL	6.25 µg/mL (≈ 6.1 µM)	0.2 µg/mL (≈ 0.195 µM)	6.25 µg/mL (≈ 6.1 µM)	1.56 µg/mL (≈ 1.52 µM)	0.2 µg/mL (≈ 0.195 µM)	–	–	–	–	–	–	–
CC(=O)Oc1cccc(C(=O)NCCCCN(Cc2ccccc2C(=O)NC(C(=O)NC2C(=O)N3C2SC(C)(C)C3C(=O)O)c2ccccc2)C(=O)c2cccc(OC(C)=O)c2OC(C)=O)c1OC(C)=O (stereo not drawn) [Example 18, N-{2-[2,7-Bis-(2,3-diacetoxybenzoyl)-2,7-diaza-heptyl]-benzooyl}-ampicillin]	0.4 µg/mL (≈ 0.402 µM)	<0.05 µg/mL	0.2 µg/mL (≈ 0.201 µM)	0.04 µg/mL (≈ 0.0402 µM)	0.24 µg/mL (≈ 0.241 µM)	6.25 µg/mL (≈ 6.29 µM)	<0.05 µg/mL	–	–	–	–	–	–	–
CC(=O)Oc1cccc(C(=O)N(C)CCCN(Cc2ccccc2C(=O)N[C@@H](C(=O)N[C@@H]2C(=O)N3[C@@H]2SC(C)(C)[C@@H]3C(=O)O)c2ccccc2)C(=O)c2cccc(OC(C)=O)c2OC(C)=O)c1OC(C)=O [Example 19, N-{2-[2,6-Bis-(2,3-diacetoxybenzoyl)-2,6-diaza-heptyl]-benzoyl}-ampicillin]	0.78 µg/mL (≈ 0.785 µM)	0.1 µg/mL (≈ 0.101 µM)	3.12 µg/mL (≈ 3.14 µM)	0.1 µg/mL (≈ 0.101 µM)	0.78 µg/mL (≈ 0.785 µM)	1.56 µg/mL (≈ 1.57 µM)	0.2 µg/mL (≈ 0.201 µM)	–	–	–	–	–	–	–
CC(=O)Oc1cccc(C(=O)NCCCN(CCN(CCCN(Cc2ccc(C(=O)N[C@@H](C(=O)N[C@@H]3C(=O)N4[C@@H]3SC(C)(C)[C@@H]4C(=O)O)c3ccccc3)cc2)C(=O)c2cccc(OC(C)=O)c2OC(C)=O)C(=O)c2cccc(OC(C)=O)c2OC(C)=O)C(=O)c2cccc(OC(C)=O)c2OC(C)=O)c1OC(C)=O [Example 20, N-{4-[2,6,9,13-Tetrakis-(2,3-diacetoxybenzoyl)-2,6,9,13-tetraaza-tridecyl]-benzoyl}-ampicillin]	1.56 µg/mL (≈ 1.03 µM)	0.78 µg/mL (≈ 0.513 µM)	1.56 µg/mL (≈ 1.03 µM)	0.4 µg/mL (≈ 0.263 µM)	1.56 µg/mL (≈ 1.03 µM)	6.25 µg/mL (≈ 4.11 µM)	0.2 µg/mL (≈ 0.132 µM)	–	–	–	–	–	–	–
COc1ccc(CN(CCCCNC(=O)c2cccc(OC(C)=O)c2OC(C)=O)C(=O)c2cccc(OC(C)=O)c2OC(C)=O)c(C(=O)N[C@@H](C(=O)N[C@@H]2C(=O)N3[C@@H]2SC(C)(C)[C@@H]3C(=O)O)c2ccccc2)c1OC [Example 21, N-{6-[2,7-Bis-(2,3-Diacetoxybenzoyl)-2,7-diaza-heptyl]-2,3-dimethoxy-benzoyl}-ampicillin]	3.12 µg/mL (≈ 2.96 µM)	0.4 µg/mL (≈ 0.379 µM)	12.5 µg/mL (≈ 11.9 µM)	0.78 µg/mL (≈ 0.74 µM)	1.56 µg/mL (≈ 1.48 µM)	0.2 µg/mL (≈ 0.19 µM)	0.2 µg/mL (≈ 0.19 µM)	–	–	–	–	–	–	–
COC(=O)Oc1cccc(C(=O)N(C)CCCN(Cc2ccccc2C(=O)N[C@@H](C(=O)N[C@@H]2C(=O)N3[C@@H]2SC(C)(C)[C@@H]3C(=O)O)c2ccccc2)C(=O)c2cccc(OC(=O)OC)c2OC(=O)OC)c1OC(=O)OC [Example 22, N-{2-[2,6-Bis-(2,3-di-methoxycarbonyloxy-benzoyl)-2,6-diaza-heptyl]-benzoyl}-ampicillin]	1.56 µg/mL (≈ 1.47 µM)	0.4 µg/mL (≈ 0.378 µM)	0.4 µg/mL (≈ 0.378 µM)	0.2 µg/mL (≈ 0.189 µM)	0.78 µg/mL (≈ 0.737 µM)	6.25 µg/mL (≈ 5.91 µM)	<0.05 µg/mL	–	–	–	–	–	–	–
CC(=O)Oc1cccc(C(=O)NCCCN(CCCN(Cc2ccccc2C(=O)N[C@@H](C(=O)N[C@@H]2C(=O)N3[C@@H]2SC(C)(C)[C@@H]3C(=O)O)c2ccccc2)C(=O)c2cccc(OC(C)=O)c2OC(C)=O)C(=O)c2cccc(OC(C)=O)c2OC(C)=O)c1OC(C)=O [Example 23, N-{2-[2,6,10-Tris-(2,3-diacetoxybenzoyl)-2,6,10-triaza-decyl]-benzoyl}-ampicillin]	6.25 µg/mL (≈ 4.97 µM)	0.78 µg/mL (≈ 0.62 µM)	1.56 µg/mL (≈ 1.24 µM)	0.78 µg/mL (≈ 0.62 µM)	3.12 µg/mL (≈ 2.48 µM)	12.5 µg/mL (≈ 9.94 µM)	0.2 µg/mL (≈ 0.159 µM)	–	–	–	–	–	–	–
CC(=O)Oc1cccc(C(=O)NCCCN(CC(=O)NC(C(=O)NC2C(=O)N3C2SC(C)(C)C3C(=O)O)c2ccccc2)C(=O)c2cccc(OC(C)=O)c2OC(C)=O)c1OC(C)=O (stereo not drawn) [Example 24, N-[3,7-Bis-(2,3-diacetoxybenzoyl)-3,7-diaza-heptanoyl]-ampicillin]	3.12 µg/mL (≈ 3.45 µM)	0.2 µg/mL (≈ 0.221 µM)	3.12 µg/mL (≈ 3.45 µM)	3.12 µg/mL (≈ 3.45 µM)	0.78 µg/mL (≈ 0.863 µM)	3.12 µg/mL (≈ 3.45 µM)	0.2 µg/mL (≈ 0.221 µM)	–	–	–	–	–	–	–
CC(=O)Oc1cccc(C(=O)NCCCCCN(CC(=O)NC(C(=O)NC2C(=O)N3C2SC(C)(C)C3C(=O)O)c2ccccc2)C(=O)c2cccc(OC(C)=O)c2OC(C)=O)c1OC(C)=O (stereo not drawn) [Example 25, N-[3,9-Bis-(2,3-diacetoxybenzoyl)-3,9-diaza-nonanoyl]-ampicillin]	0.16 µg/mL (≈ 0.172 µM)	<0.005 µg/mL	0.16 µg/mL (≈ 0.172 µM)	0.04 µg/mL (≈ 0.0429 µM)	0.04 µg/mL (≈ 0.0429 µM)	2.5 µg/mL (≈ 2.68 µM)	0.02 µg/mL (≈ 0.0215 µM)	–	–	–	–	–	–	–
CC(=O)Oc1cccc(C(=O)NCCN(CC(=O)N[C@@H](C(=O)N[C@@H]2C(=O)N3[C@@H]2SC(C)(C)[C@@H]3C(=O)O)c2ccccc2)C(=O)c2cccc(OC(C)=O)c2OC(C)=O)c1OC(C)=O [Example 26, N-[3,6-Bis-(2,3-diacetoxybenzoyl)-3,6-diaza-hexanoyl]-ampicillin]	0.78 µg/mL (≈ 0.877 µM)	0.1 µg/mL (≈ 0.112 µM)	0.78 µg/mL (≈ 0.877 µM)	0.4 µg/mL (≈ 0.449 µM)	0.78 µg/mL (≈ 0.877 µM)	3.12 µg/mL (≈ 3.51 µM)	0.78 µg/mL (≈ 0.877 µM)	–	–	–	–	–	–	–
CC1(C)S[C@@H]2[C@H](NC(=O)[C@H](N)c3ccccc3)C(=O)N2[C@H]1C(=O)O [ampicillin, reference compound]	–	–	–	–	–	–	–	6.25 µg/mL (≈ 17.9 µM)	6.25 µg/mL (≈ 17.9 µM)	> 100 µg/mL	> 100 µg/mL	25 µg/mL (≈ 71.5 µM)	0.4 µg/mL (≈ 1.14 µM)	> 100 µg/mL
CC1(C)S[C@@H]2[C@H](NC(=O)[C@H](NC(=O)N3CCNC3=O)c3ccccc3)C(=O)N2[C@H]1C(=O)O [azlocillin, reference compound]	–	–	–	–	–	–	–	6.25 µg/mL (≈ 13.5 µM)	6.25 µg/mL (≈ 13.5 µM)	6.25 µg/mL (≈ 13.5 µM)	6.25 µg/mL (≈ 13.5 µM)	50 µg/mL (≈ 108 µM)	0.4 µg/mL (≈ 0.867 µM)	25 µg/mL (≈ 54.2 µM)
C[C@@H](O)[C@H]1C(=O)N2C(C(=O)O)=C(S[C@@H]3CN[C@H](C(=O)N(C)C)C3)[C@H](C)[C@H]12 [meropenem, reference compound]	–	–	–	–	–	–	–	0.04 µg/mL (≈ 0.104 µM)	0.04 µg/mL (≈ 0.104 µM)	0.4 µg/mL (≈ 1.04 µM)	0.2 µg/mL (≈ 0.522 µM)	0.06 µg/mL (≈ 0.156 µM)	0.1 µg/mL (≈ 0.261 µM)	> 100 µg/mL
